Reference: publication PMC4601023, “Novel anticancer agent, SQAP, binds to focal adhesion kinase and modulates its activity” (Scientific Reports, 2015)

Legend:
FAK (910–1052) = biological target: T1, FAK (910–1052) (Homo sapiens, UniProt Q05397); assay: SPR analysis, immobilized His-tagged FAK (910-1052); format: binding; conditions: Biacore 3000, CM5 chip, 25 °C, read-out: dissociation constant (KD) for FAK
T1 construct: For FAK (910–1052) DNA was amplified; made in house; host or cells: E. coli BL21 (DE3)
Description: (§1) SPR was utilized as an independent confirmation of the kinetic parameters between SQAP and the putative binding proteins. […] The recombinant proteins were then expressed in Escherichia coli and purified to homogeneity. In addition, full length, His-tagged ADRM1 and GST-tagged HR23B (GST-HR23B) were also used. The proteins were first immobilized on a CM5 sensor chip of the SPR biosensor (Biacore 3000). For GST-HR23B analysis, a GST protein was additionally immobilized and used as a control in order to eliminate possible nonspecific binding of SQAP. SQAP samples at different concentrations were then injected over the proteins immobilized on the sensor chip. As a negative control we used sulfoquynovosylpropanediol (SQP), which lacks the fatty acid moiety of SQAP (Fig. 1). […]
(§2) The binding kinetics of SCP-2, MFE-2, ADRM1, HR23B and FAK with SQAP and SQP were analyzed on a Biacore 3000 instrument (GE Healthcare, Little Chalfont, UK). […] The buffer of purified peptides was exchanged to HBS-P (150 mM NaCl, 0.005% Surfactant P20, 10 mM HEPES-NaOH pH 7.4) using a PD 10 column (GE Healthcare, Little Chalfont, UK) and the concentrations were quantified using DC protein assay kit (Bio-Rad Laboratories, Hercules, CA, USA). […] Kinetic parameters were determined by analyzing the data using BIAevaluation 4.1 software (GE Healthcare, Little Chalfont, UK).

SCP-2 (400–547) = biological target: T2, SCP-2 (400–547) (Homo sapiens, UniProt P22307); assay: SPR analysis, immobilized His-tagged SCP-2 (400-547); format: binding; conditions: Biacore 3000, CM5 chip, 25 °C, read-out: dissociation constant (KD) for SCP-2
T2 construct: DNA encoding SCP-2 (400–547) was amplified; made in house; host or cells: E. coli Rosetta 2 (DE3) pLysS
Description: as §1, §2

[1] = test system: human lung small cell carcinoma, Lu-65; assay: Tumor xenograft, SQAP plus X-irradiation; format: in vivo, KSN nude mice; conditions: 2 mg/kg i.v. five injections plus X-irradiation 8 Gy/fraction x 2; Supplementary Fig. S1, also ref 12
Method: Cell lines and animal studies: A human lung small cell carcinoma, Lu-65, was obtained from the Cell resource Center for Biomedical Research (Sendai, Japan) and maintained in RPMI-1640 medium supplemented with 10% fetal bovine serum, 100 units/ml penicillin, 100 μg/ml streptomycin, and 1 mM sodium pyruvate at 37 °C in 5% CO2 humidified atmosphere. Viable tumor cell (1 × 106) were implanted subcutanceously into the right hind legs of male KSN nude mice (6–8 weeks old). After the tumor volume reached 50 to 100 mm3, the tumor were treated and the tumor growth was monitored by palpation. The size of the palpable tumors was measured using calipers every two days. The tumor volume (V, […]) was estimated based on the formula as follows; (minor axis)^2 × (major axis) × 0.5.
Treatments: Synthesized SQAP was prepared one day before experimentation, and dissolved in saline at the appropriate concentrations. To analyze the tumor radioresponse, 2 mg/kg SQAP (dissolved in 100 μl of saline) was administered intravenously to the ‘SQAP’ group and ‘Combination’ group (adiministered five times daily from days zero to four). The same amount of saline was injected in the ‘control’ group and ‘X-irradiation’ group. […]

T2 sequence (P22307 400-547): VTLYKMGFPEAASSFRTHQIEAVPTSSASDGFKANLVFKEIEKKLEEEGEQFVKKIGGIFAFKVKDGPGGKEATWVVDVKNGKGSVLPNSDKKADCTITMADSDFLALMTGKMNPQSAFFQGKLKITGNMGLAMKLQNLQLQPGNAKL
T1 sequence (Q05397 910-1052): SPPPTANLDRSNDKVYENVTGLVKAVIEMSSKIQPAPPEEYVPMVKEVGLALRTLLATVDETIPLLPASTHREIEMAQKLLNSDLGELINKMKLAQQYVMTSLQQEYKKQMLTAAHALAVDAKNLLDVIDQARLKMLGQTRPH

CCCCCCCCCCCCCCCCCC(=O)OCCCO[C@H]1O[C@H](CS(=O)(=O)O)[C@@H](O)[C@H](O)[C@H]1O [SQAP, sulfoquynovosylacylpropanediol]
Kd (FAK (910–1052)): 3.24 µM | Kd (SCP-2 (400–547)): 15.6 µM | tumor arrest in combination with irradiation [1]: synergistically enhanced tumor arrest
